Our source for the inhibition and Ki values is ChEMBL document CHEMBL5463729, “Data for DCP probe BAY 1753011” (2023).

Test [1] addresses Serine/threonine-protein kinase TAO1 (Homo sapiens) (UniProt Q7L7X3). The test is described as follows: Inhibition of TAO1(h) at 10.0 µM in the Eurofins Kinase panel. As to conditions: Compound concentration 10.0 uM; call rule not given here.
Test [2] addresses T1, 5-hydroxytryptamine receptor 1A (Homo sapiens) (UniProt P08908).
T1 sequence (whole entry): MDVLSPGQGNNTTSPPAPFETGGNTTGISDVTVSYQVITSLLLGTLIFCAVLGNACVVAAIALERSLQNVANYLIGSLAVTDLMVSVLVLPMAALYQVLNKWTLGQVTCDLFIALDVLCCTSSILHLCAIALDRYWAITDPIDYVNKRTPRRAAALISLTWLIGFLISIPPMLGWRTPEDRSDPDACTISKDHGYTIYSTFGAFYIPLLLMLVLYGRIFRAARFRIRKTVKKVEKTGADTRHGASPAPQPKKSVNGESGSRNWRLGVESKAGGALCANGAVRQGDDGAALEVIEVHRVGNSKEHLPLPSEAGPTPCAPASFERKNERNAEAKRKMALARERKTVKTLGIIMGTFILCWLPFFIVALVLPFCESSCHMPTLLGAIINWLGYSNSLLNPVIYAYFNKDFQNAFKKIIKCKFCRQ
The following applies: Compound concentration 10.0 uM.

The target in test [3] is Ephrin type-A receptor 3 (Homo sapiens) (UniProt P29320). The test is described as follows: Inhibition of EphA3(h) at 10.0 µM in the Eurofins Kinase panel. The following applies: Compound concentration 10.0 uM.
The target in test [4] is Serine/threonine-protein kinase VRK1 (Homo sapiens) (UniProt Q99986). The test is described as follows: Inhibition of VRK1(h) at 10.0 µM in the Eurofins Kinase panel. As to conditions: Compound concentration 10.0 uM.
For test [5], the target named is G protein-coupled receptor kinase 6 (Homo sapiens) (UniProt P43250). The test is described as follows: Inhibition of GRK6(h) at 10.0 µM in the Eurofins Kinase panel. The following applies: Compound concentration 10.0 uM.
Test [6] concerns the target Protein kinase C theta type (Homo sapiens) (UniProt Q04759). The test is described as follows: Inhibition of PKCtheta(h) at 10.0 µM in the Eurofins Kinase panel. The following applies: Compound concentration 10.0 uM.
The target in test [7] is NT-3 growth factor receptor (Homo sapiens) (UniProt Q16288). The test is described as follows: Inhibition of TrkC(h) at 10.0 µM in the Eurofins Kinase panel. The following applies: Compound concentration 10.0 uM.
The target in test [8] is RAC-gamma serine/threonine-protein kinase (Homo sapiens) (UniProt Q9Y243). The test is described as follows: Inhibition of PKBgamma(h) at 10.0 µM in the Eurofins Kinase panel. The following applies: Compound concentration 10.0 uM.
Sequence of RAC-gamma serine/threonine-protein kinase (Homo sapiens) (Q9Y243 whole entry): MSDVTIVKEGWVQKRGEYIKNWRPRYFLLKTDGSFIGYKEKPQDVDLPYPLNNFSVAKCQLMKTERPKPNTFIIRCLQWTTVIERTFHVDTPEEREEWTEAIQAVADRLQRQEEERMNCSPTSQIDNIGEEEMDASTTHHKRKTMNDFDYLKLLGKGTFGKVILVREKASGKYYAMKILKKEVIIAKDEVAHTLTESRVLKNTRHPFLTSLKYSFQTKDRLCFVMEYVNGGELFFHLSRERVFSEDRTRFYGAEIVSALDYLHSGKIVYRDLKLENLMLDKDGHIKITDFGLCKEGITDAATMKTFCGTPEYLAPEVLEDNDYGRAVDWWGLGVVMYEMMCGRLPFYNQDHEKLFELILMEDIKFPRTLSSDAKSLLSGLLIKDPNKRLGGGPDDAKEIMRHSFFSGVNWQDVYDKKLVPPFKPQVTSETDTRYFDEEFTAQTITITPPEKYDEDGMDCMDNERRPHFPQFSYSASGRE
Test [9] deals with T2, Alpha-1D adrenergic receptor (Homo sapiens) (UniProt P25100).
T2 sequence (whole entry): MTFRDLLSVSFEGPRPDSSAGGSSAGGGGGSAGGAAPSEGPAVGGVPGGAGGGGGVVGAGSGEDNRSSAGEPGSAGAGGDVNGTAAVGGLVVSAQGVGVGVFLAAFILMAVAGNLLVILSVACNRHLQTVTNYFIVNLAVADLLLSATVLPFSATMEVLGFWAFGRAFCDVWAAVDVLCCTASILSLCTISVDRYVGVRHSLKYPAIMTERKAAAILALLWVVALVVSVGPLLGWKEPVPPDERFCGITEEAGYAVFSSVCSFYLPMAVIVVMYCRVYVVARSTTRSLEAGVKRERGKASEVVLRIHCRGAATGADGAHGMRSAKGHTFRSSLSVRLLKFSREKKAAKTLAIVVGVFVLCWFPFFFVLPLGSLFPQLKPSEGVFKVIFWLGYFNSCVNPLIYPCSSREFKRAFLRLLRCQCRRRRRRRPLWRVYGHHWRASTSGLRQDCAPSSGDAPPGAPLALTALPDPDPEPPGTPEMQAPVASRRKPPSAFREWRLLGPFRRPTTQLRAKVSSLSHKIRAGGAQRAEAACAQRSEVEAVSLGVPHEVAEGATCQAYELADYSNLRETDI
As to conditions: Compound concentration 10.0 uM.

Test [10] deals with Dual specificity mitogen-activated protein kinase kinase 3 (Homo sapiens) (UniProt P46734). The test is described as follows: Inhibition of MKK3(h) at 10.0 µM in the Eurofins Kinase panel. The following applies: Compound concentration 10.0 uM.
Test [11] deals with T3, Muscarinic acetylcholine receptor M1 (Homo sapiens) (UniProt P11229).
T3 sequence (whole entry): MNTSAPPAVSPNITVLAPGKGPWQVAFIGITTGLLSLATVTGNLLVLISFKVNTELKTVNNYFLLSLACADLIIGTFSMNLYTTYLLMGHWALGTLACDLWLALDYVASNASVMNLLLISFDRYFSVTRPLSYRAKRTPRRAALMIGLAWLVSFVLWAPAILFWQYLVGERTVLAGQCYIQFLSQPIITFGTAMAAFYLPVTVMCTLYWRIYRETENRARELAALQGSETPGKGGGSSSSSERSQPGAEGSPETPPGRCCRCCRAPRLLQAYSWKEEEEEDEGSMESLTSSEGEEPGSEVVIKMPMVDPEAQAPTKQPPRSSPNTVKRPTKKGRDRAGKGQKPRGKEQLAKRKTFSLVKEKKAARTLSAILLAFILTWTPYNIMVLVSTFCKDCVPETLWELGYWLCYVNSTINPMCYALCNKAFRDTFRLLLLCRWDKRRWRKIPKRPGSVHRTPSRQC
The following applies: Compound concentration 10.0 uM.

Test [12] addresses Homeodomain-interacting protein kinase 2 (Homo sapiens) (UniProt Q9H2X6). The test is described as follows: Inhibition of HIPK2(h) at 10.0 µM in the Eurofins Kinase panel. As to conditions: Compound concentration 10.0 uM.
The target in a further test is Vasopressin V1b receptor (Homo sapiens, UniProt P47901). The test is described as follows: Radiometric AVPR1B binding assay (Eurofins #287560).
For test [13], the target named is Sodium-dependent dopamine transporter (Homo sapiens) (UniProt Q01959). As to conditions: Compound concentration 10.0 uM.
Sequence of Sodium-dependent dopamine transporter (Homo sapiens) (Q01959 whole entry): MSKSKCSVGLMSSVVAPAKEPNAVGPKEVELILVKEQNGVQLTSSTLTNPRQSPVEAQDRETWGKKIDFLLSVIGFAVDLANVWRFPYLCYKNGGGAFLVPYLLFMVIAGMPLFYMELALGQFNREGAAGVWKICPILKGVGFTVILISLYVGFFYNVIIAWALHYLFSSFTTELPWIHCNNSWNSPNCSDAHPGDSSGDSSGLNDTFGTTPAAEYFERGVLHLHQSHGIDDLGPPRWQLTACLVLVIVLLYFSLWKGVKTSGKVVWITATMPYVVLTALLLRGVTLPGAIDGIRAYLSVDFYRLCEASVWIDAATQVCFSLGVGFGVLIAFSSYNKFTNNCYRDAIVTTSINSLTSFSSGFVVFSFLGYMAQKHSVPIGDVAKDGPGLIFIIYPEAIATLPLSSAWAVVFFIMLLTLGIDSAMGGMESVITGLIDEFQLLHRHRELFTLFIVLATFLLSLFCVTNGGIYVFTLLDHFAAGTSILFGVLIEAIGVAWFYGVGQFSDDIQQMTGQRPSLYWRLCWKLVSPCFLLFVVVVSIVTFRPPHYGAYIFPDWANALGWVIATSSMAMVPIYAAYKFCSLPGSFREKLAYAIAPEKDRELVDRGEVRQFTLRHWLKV
The target of test [14] is Mitogen-activated protein kinase kinase kinase kinase 5 (Homo sapiens) (UniProt Q9Y4K4). The test is described as follows: Inhibition of MAP4K5(h) at 10.0 µM in the Eurofins Kinase panel. As to conditions: Compound concentration 10.0 uM.
In test [15] the target is cGMP-dependent protein kinase 2 (Homo sapiens) (UniProt Q13237). The test is described as follows: Inhibition of PRKG2(h) at 10.0 µM in the Eurofins Kinase panel. As to conditions: Compound concentration 10.0 uM.
Test [16] addresses Mitogen-activated protein kinase kinase kinase 8 (Homo sapiens) (UniProt P41279). The test is described as follows: Inhibition of COT(h) at 10.0 µM in the Eurofins Kinase panel. The following applies: Compound concentration 10.0 uM.
In test [17] the target is Serine/threonine-protein kinase ULK3 (Homo sapiens) (UniProt Q6PHR2). The test is described as follows: Inhibition of ULK3(h) at 10.0 µM in the Eurofins Kinase panel. As to conditions: Compound concentration 10.0 uM.
Test [18] deals with Cytoplasmic tyrosine-protein kinase BMX (Homo sapiens) (UniProt P51813). The test is described as follows: Inhibition of Bmx(h) at 10.0 µM in the Eurofins Kinase panel. The following applies: Compound concentration 10.0 uM.
Sequence of Cytoplasmic tyrosine-protein kinase BMX (Homo sapiens) (P51813 whole entry): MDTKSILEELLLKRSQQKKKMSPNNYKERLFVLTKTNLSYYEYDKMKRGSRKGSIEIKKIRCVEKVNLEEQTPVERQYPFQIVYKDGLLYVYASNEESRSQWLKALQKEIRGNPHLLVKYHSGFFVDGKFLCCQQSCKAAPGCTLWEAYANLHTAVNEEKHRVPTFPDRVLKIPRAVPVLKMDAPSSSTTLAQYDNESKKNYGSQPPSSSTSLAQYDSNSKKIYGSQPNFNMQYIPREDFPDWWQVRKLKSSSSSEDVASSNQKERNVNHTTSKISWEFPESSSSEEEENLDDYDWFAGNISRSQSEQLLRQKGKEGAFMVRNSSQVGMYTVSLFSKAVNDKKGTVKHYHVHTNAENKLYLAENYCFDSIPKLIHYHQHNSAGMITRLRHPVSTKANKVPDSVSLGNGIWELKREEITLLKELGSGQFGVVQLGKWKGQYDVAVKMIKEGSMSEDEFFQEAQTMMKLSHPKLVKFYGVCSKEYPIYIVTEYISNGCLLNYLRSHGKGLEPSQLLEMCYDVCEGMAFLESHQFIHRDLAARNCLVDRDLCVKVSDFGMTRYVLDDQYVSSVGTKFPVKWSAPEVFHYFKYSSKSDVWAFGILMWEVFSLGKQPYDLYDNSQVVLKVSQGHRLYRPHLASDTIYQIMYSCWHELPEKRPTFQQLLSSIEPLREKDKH
The target of test [19] is PI3-kinase p110-alpha/p85-alpha (Homo sapiens) (UniProt P27986+P42336). The test is described as follows: Inhibition of PI3 Kinase (p110a/p85a)(h) at 10.0 µM in the Eurofins Kinase panel. The format is protein-complex assay. The following applies: Compound concentration 10.0 uM.
Test [20] has as its target Sodium-dependent serotonin transporter (Homo sapiens) (UniProt P31645). The following applies: Compound concentration 10.0 uM.
Test [21] deals with Mitogen-activated protein kinase kinase kinase 10 (Homo sapiens) (UniProt Q02779). The test is described as follows: Inhibition of MLK2(h) at 10.0 µM in the Eurofins Kinase panel. The following applies: Compound concentration 10.0 uM.
Sequence of Mitogen-activated protein kinase kinase kinase 10 (Homo sapiens) (Q02779 whole entry, looked up): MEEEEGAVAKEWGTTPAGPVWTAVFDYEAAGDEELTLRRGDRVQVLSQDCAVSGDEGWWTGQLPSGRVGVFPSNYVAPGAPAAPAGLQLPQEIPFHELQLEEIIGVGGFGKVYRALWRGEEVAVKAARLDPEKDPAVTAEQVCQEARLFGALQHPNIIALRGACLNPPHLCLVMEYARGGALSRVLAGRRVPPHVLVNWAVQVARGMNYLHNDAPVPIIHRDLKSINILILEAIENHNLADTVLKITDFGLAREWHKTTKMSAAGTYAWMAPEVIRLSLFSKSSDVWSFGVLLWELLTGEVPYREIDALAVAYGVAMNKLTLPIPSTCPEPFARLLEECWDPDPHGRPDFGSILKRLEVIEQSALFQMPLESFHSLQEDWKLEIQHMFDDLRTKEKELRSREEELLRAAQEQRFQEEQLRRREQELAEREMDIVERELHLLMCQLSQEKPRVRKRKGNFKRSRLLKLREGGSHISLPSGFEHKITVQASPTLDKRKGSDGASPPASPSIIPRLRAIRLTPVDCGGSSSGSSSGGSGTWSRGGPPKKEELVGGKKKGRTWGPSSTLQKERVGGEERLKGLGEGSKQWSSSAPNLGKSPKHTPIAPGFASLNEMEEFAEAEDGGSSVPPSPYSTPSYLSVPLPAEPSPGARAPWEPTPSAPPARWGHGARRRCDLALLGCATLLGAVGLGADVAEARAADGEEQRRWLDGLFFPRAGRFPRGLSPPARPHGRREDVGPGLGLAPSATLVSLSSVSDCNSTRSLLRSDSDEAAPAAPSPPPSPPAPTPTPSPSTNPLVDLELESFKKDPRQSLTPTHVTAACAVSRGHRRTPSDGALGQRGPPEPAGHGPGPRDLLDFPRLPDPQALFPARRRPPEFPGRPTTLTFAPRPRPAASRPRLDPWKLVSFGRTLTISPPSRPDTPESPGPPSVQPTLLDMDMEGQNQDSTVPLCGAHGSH

The inhibition is the drop in the measured response relative to a control, in per cent. As a reminder, the Ki is a measure of affinity in units of concentration, obtained from inhibition or displacement.

Some results are limits rather than exact numbers.

Sequence of Sodium-dependent serotonin transporter (Homo sapiens) (P31645 whole entry, looked up): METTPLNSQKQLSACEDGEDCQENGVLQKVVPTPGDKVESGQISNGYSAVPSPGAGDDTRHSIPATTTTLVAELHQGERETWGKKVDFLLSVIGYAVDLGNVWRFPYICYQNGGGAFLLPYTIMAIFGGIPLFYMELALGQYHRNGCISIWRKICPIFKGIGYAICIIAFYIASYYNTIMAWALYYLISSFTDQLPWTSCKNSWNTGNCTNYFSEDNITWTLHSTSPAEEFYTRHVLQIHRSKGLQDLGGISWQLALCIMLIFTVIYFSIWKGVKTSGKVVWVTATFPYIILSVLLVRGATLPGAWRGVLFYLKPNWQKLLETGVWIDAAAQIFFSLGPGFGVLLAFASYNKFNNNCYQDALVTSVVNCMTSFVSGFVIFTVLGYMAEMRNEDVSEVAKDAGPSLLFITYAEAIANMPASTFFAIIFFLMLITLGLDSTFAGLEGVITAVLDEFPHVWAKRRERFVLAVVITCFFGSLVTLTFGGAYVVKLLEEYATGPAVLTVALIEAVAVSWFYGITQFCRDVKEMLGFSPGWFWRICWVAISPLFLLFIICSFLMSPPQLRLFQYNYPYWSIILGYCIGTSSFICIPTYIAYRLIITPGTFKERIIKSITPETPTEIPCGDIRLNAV
Sequence of Serine/threonine-protein kinase TAO1 (Homo sapiens) (Q7L7X3 whole entry): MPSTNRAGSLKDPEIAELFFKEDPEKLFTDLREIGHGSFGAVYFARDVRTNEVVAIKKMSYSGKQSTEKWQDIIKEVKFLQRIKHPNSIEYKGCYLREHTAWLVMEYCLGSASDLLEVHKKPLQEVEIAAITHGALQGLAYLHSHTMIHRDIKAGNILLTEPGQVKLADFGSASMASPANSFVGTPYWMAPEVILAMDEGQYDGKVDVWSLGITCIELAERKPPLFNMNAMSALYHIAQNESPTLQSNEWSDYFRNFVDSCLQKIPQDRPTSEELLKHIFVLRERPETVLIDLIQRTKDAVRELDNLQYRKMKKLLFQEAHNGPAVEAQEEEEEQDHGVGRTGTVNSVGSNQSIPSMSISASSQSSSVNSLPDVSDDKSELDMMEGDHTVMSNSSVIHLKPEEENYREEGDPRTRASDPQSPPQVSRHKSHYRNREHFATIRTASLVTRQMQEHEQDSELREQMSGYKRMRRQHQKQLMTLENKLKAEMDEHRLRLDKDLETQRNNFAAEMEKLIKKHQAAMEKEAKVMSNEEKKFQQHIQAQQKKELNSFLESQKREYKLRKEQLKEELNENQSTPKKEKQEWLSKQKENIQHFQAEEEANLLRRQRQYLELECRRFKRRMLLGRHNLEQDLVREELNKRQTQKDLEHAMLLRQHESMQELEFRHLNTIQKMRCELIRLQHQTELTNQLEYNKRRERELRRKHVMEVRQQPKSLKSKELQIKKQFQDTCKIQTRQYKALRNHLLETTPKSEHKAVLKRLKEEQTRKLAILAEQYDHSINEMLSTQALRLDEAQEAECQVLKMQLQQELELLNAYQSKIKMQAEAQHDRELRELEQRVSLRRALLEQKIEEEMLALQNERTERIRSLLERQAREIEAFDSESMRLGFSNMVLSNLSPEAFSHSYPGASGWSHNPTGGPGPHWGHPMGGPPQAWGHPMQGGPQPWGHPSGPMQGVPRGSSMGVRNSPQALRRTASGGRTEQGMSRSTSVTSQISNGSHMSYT
Sequence of Mitogen-activated protein kinase kinase kinase 8 (Homo sapiens) (P41279 whole entry): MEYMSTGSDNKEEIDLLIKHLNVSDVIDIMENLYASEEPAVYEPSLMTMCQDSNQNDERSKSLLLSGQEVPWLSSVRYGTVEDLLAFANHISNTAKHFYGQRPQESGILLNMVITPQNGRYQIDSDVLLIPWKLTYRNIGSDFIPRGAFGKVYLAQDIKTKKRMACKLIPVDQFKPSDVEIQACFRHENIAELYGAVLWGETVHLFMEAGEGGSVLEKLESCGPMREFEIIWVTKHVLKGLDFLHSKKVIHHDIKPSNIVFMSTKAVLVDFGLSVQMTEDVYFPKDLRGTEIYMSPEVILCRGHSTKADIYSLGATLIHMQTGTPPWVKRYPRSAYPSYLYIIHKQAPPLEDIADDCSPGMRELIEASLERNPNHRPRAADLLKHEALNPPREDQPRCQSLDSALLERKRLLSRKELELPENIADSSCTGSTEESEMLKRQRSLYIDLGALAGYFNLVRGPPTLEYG

As to `O=c1n(Cc2cncn2-c2cccc(Cl)c2)nc(-c2ccc(Cl)cc2)n1C[C@H](O)C(F)(F)F`, the inhibition in test [1] was 0.29%; in [2], -1%; in test [3], 1.3%; in test [4], 15.7%; in test [5], -0.21%; in [6], 14.5%. For the same compound, the inhibition is 0.07% in test [7]; 2.13% in test [8]; -1.97% in test [9]; -0.4% in [10]; 1% in [11]; -9.36% in [12]. Besides, the inhibition is 19% in test [13]; -1.83% in test [14]; -3.28% in test [15]; -1.4% in test [16]; 6.3% in test [17]; -7.7% in test [18]. The inhibition is -1.29% in [19], 1% in test [20] and 0.43% in [21]. Also, the Ki on Vasopressin V1b receptor is > 10 µM (not active).
Turning to `C[C@H](O)c1nc(Cn2nc(-c3ccc(Cl)cc3)n(C[C@H](O)C(F)(F)F)c2=O)nn1-c1cccc(Cl)c1` [PECAVAPTAN], the inhibition is 2.68% in [1]; -2% in test [2]; -7.49% in test [3]; 12.3% in test [4]; 1.15% in test [5]; 3.44% in test [6]. Besides, the inhibition is -6.4% in test [7]; -6.69% in test [8]; -0.23% in [9]; -0.58% in test [10]; -5% in test [11]; -6.27% in [12]. Moreover, the inhibition in test [13] was 4%; in test [14] it was 6.21%; in [15], -2.94%; in [16], -0.64%; in test [17], 10.9%; in test [18], -9.46%. Also, the inhibition is -2.88% in test [19], 6% in [20] and 4.18% in [21]. The Ki on Vasopressin V1b receptor was > 10 µM (not active).
